We go through 2 molecules from article PMC6537752, “Molecular characterization of CHAD domains as inorganic polyphosphate-binding modules” (Life Science Alliance, 2019).

One data set has as its target T1, CtCHAD (Chlorobaculum tepidum, UniProt Q8KE09).
T1 construct: gene CT0884; CHAD domain, residues 208-522; N-terminal 6xHis tag cleaved by TEV; E. coli BL21 (DE3) RIL; 36,194 D monomer; mainly dimer, some tetramer in solution
T1 sequence (Q8KE09 208-522): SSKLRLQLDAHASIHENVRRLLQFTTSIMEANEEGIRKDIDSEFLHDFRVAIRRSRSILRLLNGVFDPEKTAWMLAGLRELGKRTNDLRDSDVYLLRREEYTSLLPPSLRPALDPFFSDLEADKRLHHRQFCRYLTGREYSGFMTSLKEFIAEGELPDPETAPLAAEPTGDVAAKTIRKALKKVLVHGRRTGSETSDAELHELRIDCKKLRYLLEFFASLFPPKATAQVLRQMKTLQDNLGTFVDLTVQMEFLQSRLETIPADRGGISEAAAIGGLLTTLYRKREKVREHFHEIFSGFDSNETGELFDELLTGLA
The data set is described as follows: grating-coupled interferometry competition against polyP-coated chip. It is filed as binding.

The target of data set [1] is T2, ygiF-full length 1–433 (FL) (Escherichia coli, UniProt P30871).
T2 sequence (P30871 1-433): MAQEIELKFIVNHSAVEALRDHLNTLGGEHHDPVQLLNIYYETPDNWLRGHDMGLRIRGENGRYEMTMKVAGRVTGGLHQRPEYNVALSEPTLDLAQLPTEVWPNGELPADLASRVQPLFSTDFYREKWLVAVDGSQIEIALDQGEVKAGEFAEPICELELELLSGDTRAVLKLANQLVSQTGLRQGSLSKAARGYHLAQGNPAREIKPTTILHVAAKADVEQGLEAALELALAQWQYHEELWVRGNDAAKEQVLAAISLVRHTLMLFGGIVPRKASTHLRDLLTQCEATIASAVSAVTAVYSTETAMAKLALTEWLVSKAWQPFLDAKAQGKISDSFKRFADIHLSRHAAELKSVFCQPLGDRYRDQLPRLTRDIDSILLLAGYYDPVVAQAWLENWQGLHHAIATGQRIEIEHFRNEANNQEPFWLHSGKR
Nature of the data set: malachite green phosphate release. It is filed as biochemical. The conditions noted are these: 10 nM enzyme, 500 μM substrate, 20 mM Bis-Tris propane pH 8.5, 150 mM NaCl, 5 mM MgCl2, 37°C, 7 min.

A further data set concerns the target T3, ygiF-TTM 1–200 (TTM) (Escherichia coli, UniProt P30871).
T3 sequence (P30871 1-200): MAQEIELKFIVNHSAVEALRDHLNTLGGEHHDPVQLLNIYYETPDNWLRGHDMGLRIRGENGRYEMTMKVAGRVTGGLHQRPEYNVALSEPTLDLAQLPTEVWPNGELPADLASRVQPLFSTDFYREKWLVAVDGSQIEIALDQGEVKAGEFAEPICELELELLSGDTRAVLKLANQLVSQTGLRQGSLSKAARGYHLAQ
Nature of the data set: malachite green phosphate release. The format is biochemical. Particulars: 10 nM enzyme, 500 μM substrate, 20 mM Bis-Tris propane pH 8.5, 150 mM NaCl, 5 mM MgCl2, 37°C, 7 min.

Data set [2] deals with the molecule itself. Nature of the data set: SEC; analytical size-exclusion chromatography, Superdex 200 Increase 10/300 GL, buffer A (50 mM PBS, pH 7.5, 500 mM NaCl), 500 μl of protein at 0.5 mg/ml, no polyP.
Data set [3] concerns the molecule itself. The data set is described as follows: SEC-RALS (size-exclusion chromatography with right-angle light scattering); apo CtCHAD, 2 mg/ml, 20 mM Hepes pH 7.5, 150 mM NaCl, Superdex 200 10/300 increase, 35°C.
Data set [4] concerns the molecule itself. The data set is described as follows: SEC-RALS (size-exclusion chromatography with right-angle light scattering); CtCHAD incubated with 1 mM polyP (average chain length ∼30 Pi units) for 3 h at room temperature, 2 mg/ml, 20 mM Hepes pH 7.5, 150 mM NaCl, Superdex 200 10/300 increase, 35°C.

Regarding `O=P(O)(O)OP(=O)(O)OP(=O)(O)O` [tripolyphosphate], the IC50 at CtCHAD was about 200 nM. The “malachite green phosphate release” value in data set [1] is “CHAD domain stimulated the previously reported tripolyphosphatase activity of ygiF”; on ygiF-TTM 1–200 (TTM) it was “The substrates tested were ATP (Merck), sodium tripolyphosphate (Merck), and polyP”.

B1: CtCHAD^208–522 (CHAD domain–containing protein from Chlorobium tepidum) (domain or fragment, UniProt Q8KE09 208-522, looked up)
chain: T1 sequence (Q8KE09 208-522)
notes: CHAD domain of the C. tepidum CHAD domain–containing protein, UniProt Q8KE09, residues 208-522; synthetic gene; not shown: His6, N-terminal, cleaved
Consider B1, for which the “stoichiometry N” value in data set [2] was 2; in data set [3], 4; in data set [4], at least 4.
